In patent publication US11319343B2, “Method of treatment” (ROYAL MELBOURNE INSTITUTE OF TECHNOLOGY, priority 2017, dated 2022):
Residues, ends and D or L forms follow the SMILES beside them. No end group written: not given here.

Experiments:
[1] = Cell viability after C98i peptides; assay type: cell-based
TLR7 [2] = target: T1, TLR7 (Mus musculus, UniProt P58681); assay type: cell-based; settings: for IFN-β, IL-1β, TNF-α and IL-6 expression in response to imiquimod: apocynin 300 μM pre-treatment, SOD 300 U/mL (basal or imiquimod-stimulated), catalase 1000 U/mL
T1 construct: endogenous in cells; host or cells: immortalized bone marrow-derived macrophages (BMDMs) or RAW264.7 cells
T1 sequence (P58681 27-1050): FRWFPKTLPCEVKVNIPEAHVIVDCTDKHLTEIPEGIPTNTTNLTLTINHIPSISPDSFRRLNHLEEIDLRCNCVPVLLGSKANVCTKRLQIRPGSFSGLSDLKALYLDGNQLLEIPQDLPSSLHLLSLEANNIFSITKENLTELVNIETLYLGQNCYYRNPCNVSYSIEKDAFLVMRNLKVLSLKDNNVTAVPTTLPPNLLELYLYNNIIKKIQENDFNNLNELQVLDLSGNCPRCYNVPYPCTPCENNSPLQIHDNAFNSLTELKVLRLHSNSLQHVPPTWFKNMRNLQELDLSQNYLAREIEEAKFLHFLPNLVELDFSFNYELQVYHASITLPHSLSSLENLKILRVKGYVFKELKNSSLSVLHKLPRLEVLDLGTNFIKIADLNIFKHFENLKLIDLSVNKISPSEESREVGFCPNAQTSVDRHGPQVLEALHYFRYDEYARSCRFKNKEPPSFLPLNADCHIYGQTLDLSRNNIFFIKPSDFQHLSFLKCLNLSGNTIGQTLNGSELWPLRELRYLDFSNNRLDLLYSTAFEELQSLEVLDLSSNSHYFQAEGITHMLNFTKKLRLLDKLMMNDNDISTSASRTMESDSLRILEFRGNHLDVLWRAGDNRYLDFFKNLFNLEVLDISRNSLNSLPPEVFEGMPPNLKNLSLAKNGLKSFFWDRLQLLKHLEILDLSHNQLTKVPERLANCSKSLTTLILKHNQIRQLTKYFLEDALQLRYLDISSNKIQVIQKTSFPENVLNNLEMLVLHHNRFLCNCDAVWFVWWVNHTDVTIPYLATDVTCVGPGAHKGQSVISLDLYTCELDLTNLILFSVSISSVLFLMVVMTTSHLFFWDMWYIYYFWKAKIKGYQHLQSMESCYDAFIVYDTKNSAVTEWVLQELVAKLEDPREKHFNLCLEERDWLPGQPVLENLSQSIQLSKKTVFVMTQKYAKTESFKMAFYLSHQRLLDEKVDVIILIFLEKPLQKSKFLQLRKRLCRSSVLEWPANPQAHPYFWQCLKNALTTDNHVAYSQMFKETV

[3] = system: influenza A virus strain HKx31 (H3N2); assay type: cell-based
NOX2 oxidase = NOX2 oxidase assembly (NOX2-p47phox association), confocal fluorescence microscopy; settings: pre-treatment: Dynasore 100 μM, bafilomycin A 100 nM, PD98059 30 μM
[4] = system: mouse primary alveolar macrophages; assay type: cell-based
TLR3 = assay type: cell-based, mouse; settings: poly I:C 25 μg/mL; apocynin pre-treatment
TLR9 = assay type: cell-based, mouse; settings: CpG 10 μg/mL; apocynin
TLR7 responses = assay type: in vivo; settings: imiquimod 50 μg/mouse intranasally, 24 h
[5] = system: human alveolar macrophages; assay type: cell-based; settings: imiquimod 10 μg/mL, AMs from human
pERK1/2 = assay: Cytosolic pERK1/2 activity, FRET biosensor; assay type: cell-based, mouse; settings: TLR7-dependent manner
PKC = assay: Cytosolic PKC activity, FRET biosensor cytoCKAR; assay type: cell-based, mouse; settings: WT macrophages, imiquimod, within 5 min
[6] = system: macrophage mitochondrial superoxide; assay: Macrophage mitochondrial superoxide production; assay type: cell-based; settings: TLR7 activation with imiquimod
xanthine oxidase = target: T2, xanthine oxidase (Bos taurus, UniProt P80457); assay: Xanthine/xanthine oxidase cell-free superoxide assay (ROS scavenging); assay type: biochemical; settings: 1 μM
T2 construct: purchased Sigma X1875
T2 sequence (P80457 whole entry): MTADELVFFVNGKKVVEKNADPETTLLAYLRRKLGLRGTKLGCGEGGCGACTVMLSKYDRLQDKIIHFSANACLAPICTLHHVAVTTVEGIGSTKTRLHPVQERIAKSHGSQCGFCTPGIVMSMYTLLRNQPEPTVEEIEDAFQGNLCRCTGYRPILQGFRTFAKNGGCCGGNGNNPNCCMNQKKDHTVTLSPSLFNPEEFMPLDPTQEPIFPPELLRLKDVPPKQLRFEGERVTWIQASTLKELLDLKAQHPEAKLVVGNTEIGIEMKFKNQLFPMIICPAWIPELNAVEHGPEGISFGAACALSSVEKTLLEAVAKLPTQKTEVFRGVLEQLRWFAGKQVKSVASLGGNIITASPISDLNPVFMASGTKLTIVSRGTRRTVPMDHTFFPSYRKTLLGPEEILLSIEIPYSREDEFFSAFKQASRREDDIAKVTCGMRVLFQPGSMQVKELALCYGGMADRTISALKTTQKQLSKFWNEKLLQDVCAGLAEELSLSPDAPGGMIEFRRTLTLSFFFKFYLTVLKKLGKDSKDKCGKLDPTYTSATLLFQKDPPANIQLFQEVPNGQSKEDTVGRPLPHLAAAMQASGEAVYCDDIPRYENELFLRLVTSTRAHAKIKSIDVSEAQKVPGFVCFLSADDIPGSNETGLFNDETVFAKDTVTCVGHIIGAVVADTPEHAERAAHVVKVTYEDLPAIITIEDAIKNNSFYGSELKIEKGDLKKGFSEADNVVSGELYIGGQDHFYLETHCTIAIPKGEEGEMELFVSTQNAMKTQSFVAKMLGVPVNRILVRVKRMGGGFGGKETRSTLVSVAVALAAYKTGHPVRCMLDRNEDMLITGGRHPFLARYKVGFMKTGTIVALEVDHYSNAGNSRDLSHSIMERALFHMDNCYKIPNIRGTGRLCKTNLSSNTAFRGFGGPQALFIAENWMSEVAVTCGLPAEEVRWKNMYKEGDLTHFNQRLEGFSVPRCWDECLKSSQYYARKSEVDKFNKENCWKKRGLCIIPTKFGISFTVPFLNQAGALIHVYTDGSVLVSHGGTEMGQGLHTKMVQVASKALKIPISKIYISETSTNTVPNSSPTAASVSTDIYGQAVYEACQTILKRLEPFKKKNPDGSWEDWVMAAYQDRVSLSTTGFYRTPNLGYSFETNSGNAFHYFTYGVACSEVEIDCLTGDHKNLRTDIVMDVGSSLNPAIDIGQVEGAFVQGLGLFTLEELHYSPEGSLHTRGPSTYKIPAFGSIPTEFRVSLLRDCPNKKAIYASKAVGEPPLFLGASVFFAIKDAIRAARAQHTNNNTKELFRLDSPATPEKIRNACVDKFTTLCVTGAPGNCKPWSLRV
Method: Briefly, Krebs-HEPES buffer containing L-O12 (100 μM) was added into a 96-well Optiview plate. Following this, 0.1% w/v DMSO, unconjugated gp91dstat (Ugp91ds-TAT, 1 μM) or cholestanol-conjugated gp91ds-TAT (1 μM) were added in combination with Xanthine (100 μM). Immediately after xanthine oxidase (0.03 U/mL) was added, photon emission [relative light units (RLU)/s] was detected using the Chameleon (Trademark) luminescence detector (Hidex, model 425105, Finland) and recorded from each well for 1 s over 60 cycles. Individual data points for each group were derived from the average values of the three replicates minus the respective blank controls. Data are represented as raw values.

HKx31 influenza A virus = settings: mouse, in vivo
TLR7 [7] = target: T1, TLR7; assay: TLR7 agonist response (cytokine expression) in bone marrow derived macrophages with C98i peptides; assay type: cell-based; settings: for inhibition of TLR7 agonist, imiquimod, response in vitro (IL-6 mRNA expression): peptides 100 μM + 10 μg/ml imiquimod, no TAT
TLR7 [8] = assay type: cell-based, mouse

## CC(C)C[C@H](NC(=O)[C@@H](NC(=O)[C@@H]1CCCN1C(=O)[C@@H](NC(=O)[C@H](CS)NC(=O)[C@H](CC(N)=O)NC(=O)[C@H](CS)NC(=O)[C@H](CCCNC(=N)N)NC(=O)[C@H](CC(C)C)NC(=O)[C@@H](N)CC(=O)O)C(C)C)C(C)C)C(N)=O [C98i no TAT, DLRCNCVPVL-NH2] (H-DLRCNCVPVL-NH2)
[1]
  cell viability: no adverse effect

## CC(C)C[C@H](NC(=O)[C@@H](NC(=O)[C@@H]1CCCN1C(=O)[C@@H](NC(=O)[C@H](CS)NC(=O)[C@H](CC(N)=O)NC(=O)[C@H](CS)NC(=O)[C@H](CCCNC(=N)N)NC(=O)[C@H](CC(C)C)NC(=O)[C@H](CC(=O)O)NC(=O)[C@H](CCCNC(=N)N)NC(=O)[C@H](CCCNC(=N)N)NC(=O)[C@H](CCCNC(=N)N)NC(=O)[C@H](CCC(N)=O)NC(=O)[C@H](CCCNC(=N)N)NC(=O)[C@H](CCCNC(=N)N)NC(=O)[C@H](CCCCN)NC(=O)[C@H](CCCCN)NC(=O)[C@H](CCCNC(=N)N)NC(=O)CNC(=O)[C@@H](N)Cc1ccc(O)cc1)C(C)C)C(C)C)C(N)=O [C98i] (H-YGRKKRRQRRRDLRCNCVPVL-NH2)
[1]
  cell viability: no adverse effect

## O=C(N/N=C/c1ccc(O)c(O)c1)c1cc2ccccc2cc1O [Dynasore]
TLR7 [2]; WT macrophages treated with Dynasore (100 μM)
  catalase-dependent increase in cytokines: significantly suppressed
[3]
  influenza nucleoprotein (NP) fluorescence: almost abolished
NOX2 oxidase
  co-location (association) of NOX2 and p47phox caused by influenza virus: reduced

## CC(=O)c1ccc2c(c1)Nc1ccccc1S2 [ML171]
[4]
  endosomal ROS production (OxyBURST) in response to influenza A virus: unaffected

## COc1cccc(-c2cc(=O)c3ccccc3o2)c1N [PD98059]
[4]
  endosomal ROS production (OxyBURST) in response to influenza A virus: did not influence
NOX2 oxidase
  co-location (association) of NOX2 and p47phox caused by influenza virus: did not influence

## COc1cc(C(C)=O)ccc1O [apocynin, 4′-Hydroxy-3′-methoxy acetophenone]
TLR7 [2]; WT macrophages
  IFN-β, IL-1β, TNF-α and IL-6 expression in response to imiquimod: significantly enhanced
TLR3
  IFN-β, IL-1β, TNF-α and IL-6 expression in response to poly I:C: suppressed
TLR9
  increases in IFN-β, IL-1β, TNF-α and IL-6 triggered by CpG: unaffected

## CO/C1=C\C(C)=C\[C@@H](C)[C@@H](O)[C@@H](C)C/C(C)=C/C=C/[C@H](OC)[C@@H]([C@@H](C)[C@@H](O)[C@H](C)[C@@]2(O)C[C@@H](O)[C@H](C)[C@@H](C(C)C)O2)OC1=O [bafilomycin A]
[4]
  NOX2 dependent ROS production in response to virus infection and to imiquimod: abolished
  endosomal ROS production (OxyBURST) in response to influenza A virus: abolished the LysoTracker fluorescence and endosomal ROS production
NOX2 oxidase
  co-location (association) of NOX2 and p47phox caused by influenza virus: reduced

## CC(C)Cn1cnc2c(N)nc3ccccc3c21 [imiquimod]
TLR7 responses; NOX2−/y mice
  lung IFN-β, IL-1β, IL-6 and TNF-α: elevated levels
TLR7 responses; WT and NOX2−/y mice
  airway inflammation: no discernible alterations
[5]
  endosomal ROS production caused by the agonist: markedly increased endosomal ROS
TLR7 [2]; imiquimod alone, WT macrophages
  IFN-β, IL-1β, TNF-α and IL-6 expression: significant elevation
pERK1/2
  cytosolic pERK1/2: increased cytosolic pERK1/2
PKC
  cytosolic PKC activity: elevated cytosolic PKC activity
[4]
  endosomal ROS production caused by the agonist: markedly increased endosomal ROS
[6]
  macrophage mitochondrial superoxide production: failed to increase

## Ac-Asp(OChol)-PEG4-PEG3-PEG4-gp91-NH2 [Cgp91ds-TAT]
Xanthine oxidase
  ROS scavenging properties: not attributed to enhanced ROS scavenging properties
HKx31 influenza A virus
  airway inflammation: almost abolished
  decrease in lung influenza A viral burden: ~10,000 fold
  lung IFN-β mRNA levels compared to the control virus group: significantly increased
  reduction in airways inflammation: ~40%
  superoxide production in BALF inflammatory cells: almost abolished
  weight loss caused by influenza A virus at day 3: significantly reduced the weight loss

## RANA-NH2
TLR7 [7]
  inhibition of TLR7 agonist, imiquimod, response in vitro (IL-6 mRNA expression): none

## RANC-NH2
TLR7 [7]
  inhibition of TLR7 agonist, imiquimod, response in vitro (IL-6 mRNA expression): none

## RCNA-NH2
TLR7 [7]
  inhibition of TLR7 agonist, imiquimod, response in vitro (IL-6 mRNA expression): none

## RCNC—NH2 (RCNC-NH2; cysteine pairing not given here)
TLR7 [7]
  inhibition of TLR7 agonist, imiquimod, response in vitro (IL-6 mRNA expression): none

## YGRKK-RRQRR-RCSTR-IRRQL-NH2 [Ugp91ds-TAT]
HKx31 influenza A virus
  decrease in lung influenza A viral burden: ~10,000 fold
  lung IFN-β mRNA levels compared to the control virus group: failed to do so
  superoxide production in BALF inflammatory cells: almost abolished
  weight loss caused by influenza A virus at day 3: significantly reduced the weight loss

## YGRKKRRQRRRCLVPNDCRLV-NH2 [scrambled C98i]
TLR7 [7]; scrambled sequence with TAT
  inhibition of TLR7 agonist (imiquimod): not able to inhibit

## catalase
TLR7 [2]; 1 hr pulse catalase 1000 U/mL, after 24 h, WT macrophages
  IFN-β and IL-1β expression: significant elevations
TLR7 [2]; WT macrophages
  IFN-β, IL-1β, TNF-α and IL-6 expression in response to imiquimod: significantly increased
TLR7 [8]
  cytokine expression in cells expressing mutated TLR7: little or no effect
TLR7 [8]; catalase
  TLR7, TREML4 or NLRP3 expression: no effect
TLR7 [8]; catalase 1000 U/mL, transfected TLR7−/− macrophages
  cytokine expression in cells with WT TLR7 or TLR7C445A: markedly increased
